The values below come from ChEMBL document CHEMBL1129285, “Conformationally constrained analogues of diacylglycerol. 10. Ultrapotent protein kinase C ligands based on a racemic 5-disubstituted tetrahydro-2-furanone template” (J Med Chem, 1996).

Usually pKi stands for the Ki on a negative log10 scale, so that one unit is a factor of ten. A high value points to a low Ki.

The target in this assay is Protein kinase C alpha type (Homo sapiens, UniProt P17252). In words: Displacement of [H-20]phorbol12,13-dibutyrate (PDBU) from Protein kinase C alpha.

Molecules are shown by their SMILES. pKi: −log10 of the molar value.

`CCCCCCCCCCCCC/C=C1\CC(CO)(COC(C)=O)OC1=O` (configuration not stated) showed a pKi of 7.11.
The compound `CCCCCCCCCCCCC/C=C1/CC(CO)(COC(C)=O)OC1=O` (configuration not stated) gave a pKi of 7.47.
